In patent US20230146795A1, “ENHANCEMENT OF ANTI-TUMOR ACTIVITY OF SHP2 INHIBITOR PYRIMIDINONE IN COMBINATION WITH NOVEL CANCER MEDICINES IN CANCERS” (TAIHO PHARMACEUTICAL CO., LTD., priority 2020, published 2023):
One block for each molecule: values may come before it.

Key:
SHP2 = target: T1, SHP2 (Homo sapiens, UniProt Q06124); assay: SHP2 biochemical assay (DiFMUP conversion); conditions: 10 pM SHP2, 0.25 μM pIRS1 peptide, 50 μM DiFMUP
T1 sequence (Q06124 1-593): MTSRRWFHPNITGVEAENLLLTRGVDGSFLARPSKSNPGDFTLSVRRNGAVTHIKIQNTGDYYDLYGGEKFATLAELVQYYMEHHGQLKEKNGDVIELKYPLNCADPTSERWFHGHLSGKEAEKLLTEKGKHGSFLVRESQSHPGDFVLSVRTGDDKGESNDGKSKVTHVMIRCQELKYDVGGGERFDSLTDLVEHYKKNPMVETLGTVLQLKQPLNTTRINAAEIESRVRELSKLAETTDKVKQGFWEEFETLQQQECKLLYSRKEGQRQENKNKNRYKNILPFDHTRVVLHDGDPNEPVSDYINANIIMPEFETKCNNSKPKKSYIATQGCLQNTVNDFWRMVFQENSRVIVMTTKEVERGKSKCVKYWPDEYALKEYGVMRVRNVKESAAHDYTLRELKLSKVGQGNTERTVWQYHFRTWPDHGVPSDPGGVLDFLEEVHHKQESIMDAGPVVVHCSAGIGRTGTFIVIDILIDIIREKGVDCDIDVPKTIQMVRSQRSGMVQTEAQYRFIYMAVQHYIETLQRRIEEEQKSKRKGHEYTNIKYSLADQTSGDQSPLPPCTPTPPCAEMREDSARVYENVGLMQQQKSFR
Description: (1) SHP2 Biochemical Assay SHP2 Activity was Monitored by Measuring the Conversion of the Surrogate Substrate 6,8-Difluoromethylumbelliferyl Phosphate (DiEMUP) to the Fluorescent Product, 6,8-Difluoromethylumbelliferone (DiFMU).
SHP2 was pre-incubated with test compounds and the activating peptide pIRS1 (H2N-LN(pY) IDLDLV-(PEG) 8-LST(pY)ASINFQK-amide) for 30 min, prior to addition of the 6,8-difluoromethylumbelliferyl phosphate (DiEMUP), (Thermo Fisher D6567). Final assay concentrations were 10 pM SHP2, 0.25 μM pIRS1 peptide, 50 μM DiFMUP, 25 mM Bis-Tris propane, pH 7.0, 150 mM NaCl, 0.05% (v/v) Tween-20, 0.5 mM TCEP and 5% (v/v) DMSO. Rates of reaction were then measured over 30 min by monitoring fluorescence on a BMG Pherastar reader at excitation 360 nm/emission 450 nm. IC50 values were calculated in singlicate from the normalized dose-response plots using four parameter logistic curve fit. The Experiment for each compound was carried out in one time or multiple times, and the IC50 values were shown as a single value (for a compound measured in a single experiment) or an average value (for a compound measured in multiple experiments).

[1] = test system: human pancreatic cancer cell line MIA PaCa-2 (KRAS mutation); assay: Antitumor effect on MIA PaCa-2 tumor subcutaneously implanted to CB17 SCID mouse; type: in vivo
Description: MIA PaCa-2 cell line carries KRAS mutation.
A human pancreatic cancer line, MIA PaCa-2 (available from American Type Culture Collection), suspended in a mixture of PBS and Matrigel was subcutaneously implanted to male CB17 SCID mice at 7-10 weeks of age (Charles River UK) at 5×10^6 cells/100 μl/mouse. Tumors were measured with a pair of digital calipers, and tumor volumes (TV) were calculated by applying the formula for ellipsoid. Mice with TV of 146 to 360 mm^3 were assigned to study groups such that average TV was equal among groups.
Oral administration of Compound 1 or its vehicle, and Compound 9 or its vehicle was started on Day 1. Compound 1 was dissolved in an acidified solution of 0.5% (w/v) hydroxypropyl methylcellulose (Sigma) and administered via oral gavage at 6 or 12 mg/kg/day. Compound 9 was suspended in 20% (v/v) PEG200 (Sigma) and 0.5% (w/v) methylcellulose (Sigma) and administered via oral gavage at 50 mg/kg/day. All treatments were given once a day for 21 consecutive days, except for the combination group receiving 12 mg/kg of Compound 1 and 50 mg/kg of Compound 9, in which the animals were treated for 5 days per week for 3 weeks.
Antitumor effects were evaluated by comparing the median relative tumor volumes (RTV) between control- and treated groups. RTV was calculated by dividing TV on any test day by TV on Day 1, expressed as a percentage. T/C (%), as a measure of anti-tumor activity, was calculated by dividing median RTV values of each compound-administered group by median RTV of the control group receiving both vehicles.

[2] = test system: 97 cell lines harboring driver mutations in KRAS; assay: In vitro cell line screening, 3D cultures (CellTiter-Glo 3D), KRAS panel; type: cell-based, human; conditions: sensitive = maximum inhibition greater than 50% relative to DMSO, max 3 μM Compound 1, 1 μM Compound 9, 120-hour incubation
Description: The effect of Compound 1 in combination with an ERK inhibitor, Compound 9, on 97 cell lines harboring driver mutations in KRAS (G12A, G12C, G12F, G12R, G12S, G12V, G13C, G13D, A59G, Q61H, Q61K, Q61L or A146T) was assessed using the following technique. Cells from human cancer cells lines (from commercial sources such as ATCC or ECCAC) were grown as 3D cultures by seeding cells into round-bottom ultra-low attachment 96-well tissue culture plates (Corning) followed by centrifugation. Cells were allowed to recover for 16-24 hours prior to compound treatment. Compounds or dimethyl sulfoxide (DMSO) were added at various combinations of compound concentrations in a final DMSO concentration of up to 0.5% (v/v). Following a total of 120-hour incubation, CellTiter-Glo 3D Reagent(registered trademark) (Promega) was added. Plates were incubated for 10 minutes with gentle shaking at room temperature to lyse the cells, then incubated for further 40 minutes at room temperature to stabilize luminescence signal. After mixing, the mixture was transferred to a fresh plate and luminescence was determined on EnVision plate reader (Perkin Elmer).
(§1) For both 3D and 2D assays, the combination was tested as matrix of various concentrations of Compound 1 and Compound 9. The maximum concentrations of Compound 1 and Compound 9 used were 3 μM and 1 μM, respectively. Signals were normalized to that of the average of the DMSO control wells. […] For each cell line, the maximum % inhibition values were obtained for Compound 1 alone, Compound 9 alone and the combination of both compounds. The degree of drug interaction (i.e. synergy, additivity or antagonism) was quantified for each cell line by the Bliss independence model using the Synergyfinder R package (Ref: He L. et al. (2018) Methods for High-throughput Drug Combination Screening and Synergy Scoring. In: von Stechow L. (eds) Cancer Systems Biology. Methods in Molecular Biology, vol 1711. Humana Press, New York, N.Y.). For each cell line, a single score metric, the sum of synergy and antagonism across screened drug concentrations (SUM_SYN_ANT) (Ref: Di Veroli G. Y. et al (2016) Bioinformatics 32(18):2866-2868), was calculated. Synergy was defined as a score of 21 or above.

[3] = test system: 394 cell lines that do not depend on KRAS; assay: In vitro cell line screening, 2D monolayers (CellTiter-Glo), KRAS-independent panel; type: cell-based, human; conditions: Non-KRAS panel, sensitive = maximum inhibition greater than 50% relative to DMSO, max 3 μM Compound 1, 1 μM Compound 9, 120-hour incubation
Description: (§2) Cells from human cancer cells lines (from commercial sources such as ATCC or ECCAC) were grown as 2D monolayers by seeding onto flat-bottom 96-well tissue culture plates (Corning). Cells were allowed to recover for 16-24 hours prior to compound treatment. Compounds or dimethyl sulfoxide (DMSO) were added at various combinations of compound concentrations in a final DMSO concentration of up to 0.5% (v/v). Following a total of 120-hour incubation, CellTiter-Glo reagent(registered trademark) (Promega) was added. Plates were incubated for 10 minutes with gentle shaking at room temperature to lyse the cells, then incubated for further 10 minutes at room temperature to stabilize luminescence signal. After mixing, the mixture was transferred to a fresh plate, and luminescence was determined on EnVision plate reader (Perkin Elmer).
as §1

491 cell lines = assay: In vitro cell line screening, both panels overall; type: cell-based, human; conditions: Total panel, sensitive = maximum inhibition greater than 50% relative to DMSO, max 3 μM Compound 1, 1 μM Compound 9, 120-hour incubation
Description: as §2, with “as 3D cultures” for “as 2D monolayers”, “seeding cells into round-bottom ultra-low attachment” for “seeding onto flat-bottom”, “plates (Corning) followed by centrifugation.” for “plates (Corning).”, “CellTiter-Glo 3D Reagent(registered” for “CellTiter-Glo reagent(registered”, “further 40” for “further 10”, “fresh plate” for “fresh plate,”
as §2, §1

Structure (SMILES): CCn1cc2c(Cl)c(-c3c[nH]c4nc(N5[C@H]6CC[C@@H]5[C@H](N)C6)n(C)c(=O)c34)ccc2n1 [Compound 7, 2-((1R,2R,4S)-2-amino-7-azabicyclo[2.2.1]heptan-7-yl)-5-(4-chloro-2-ethyl-2H-indazol-5-yl)-3-methyl-3,7-dihydro-4H-pyrrolo[2,3-d]pyrimidin-4-one]
IC50 (SHP2): 3.3 nM

Structure (SMILES): Cn1nc2ccc(-c3c[nH]c4nc(N5[C@H]6CC[C@@H]5[C@H](N)C6)n(C)c(=O)c34)c(F)c2c1Cl [Compound 6, 2-((1R,2R,4S)-2-amino-7-azabicyclo[2.2.1]heptan-7-yl)-5-(3-chloro-4-fluoro-2-methyl-2H-indazol-5-yl)-3-methyl-3,7-dihydro-4H-pyrrolo[2,3-d]pyrimidin-4-one]
IC50 (SHP2): 2.8 nM

Structure (SMILES): Cn1nc2ccc(-c3n[nH]c4nc(N5C[C@H]6CC[C@@H]5[C@@H]6N)n(C)c(=O)c34)c(Cl)c2c1Cl [Compound 2, 6-((1R,4R,7R)-7-amino-2-azabicyclo[2.2.1]heptan-2-yl)-3-(3,4-dichloro-2-methyl-2H-indazol-5-yl)-5-methyl-1,5-dihydro-4H-pyrazolo[3,4-d]pyrimidin-4-one]
IC50 (SHP2): 2.6 nM

Structure (SMILES): COc1cc(F)cc([C@@H](CO)NC(=O)[C@@H](C)N2Cc3ccc(-c4nc(NC5CCOCC5)ncc4Cl)cc3C2=O)c1 [Compound 9, (2R)-2-(6-{5-chloro-2-[(oxan-4-yl)amino]pyrimidin-4-yl}-1-oxo-2,3-dihydro-1H-isoindol-2-yl)-N-[(1S)-1-(3-fluoro-5-methoxyphenyl)-2-hydroxyethyl]propanamide]
partial regression (tumor shrinkage of 50% or above), mice ([1]; Compound 9 alone 50 mg/kg/day): 1 out of 8
T/C ([1]; Compound 9 alone 50 mg/kg/day oral, once a day, Day 18): 29%
tumor response ([1]; Compound 9 alone 50 mg/kg/day, during the treatment period): tumor stasis
Number of cell lines sensitive [2]: 80
Number of cell lines sensitive (% of total) [2]: 82.5%
Number of cell lines sensitive [3]: 204
Number of cell lines sensitive (% of total) [3]: 51.8%
Number of cell lines sensitive (491 cell lines): 284
Number of cell lines sensitive (% of total) (491 cell lines): 57.8%

Continued, values first:

IC50 (SHP2): 1.5 nM
Structure (SMILES): Cn1nc2ccc(-c3c[nH]c4nc(N5C[C@H]6CC[C@@H]5[C@@H]6N)n(C)c(=O)c34)c(Cl)c2c1Cl [Compound 5, 2-((1R,4R,7R)-7-amino-2-azabicyclo[2.2.1]heptan-2-yl)-5-(3,4-dichloro-2-methyl-2H-indazol-5-yl)-3-methyl-3,7-dihydro-4H-pyrrolo[2,3-d]pyrimidin-4-one]

IC50 (SHP2): 3.7 nM
Structure (SMILES): Cn1cc2c(Cl)c(-c3c[nH]c4nc(N5C[C@H]6CC[C@@H]5[C@@H]6N)n(C)c(=O)c34)ccc2n1 [Compound 4, 2-((1R,4R,7R)-7-amino-2-azabicyclo[2.2.1]heptan-2-yl)-5-(4-chloro-2-methyl-2H-indazol-5-yl)-3-methyl-3,7-dihydro-4H-pyrrolo[2,3-d]pyrimidin-4-one]
